# According to patent US9927437B2, “Treating neurodegenerative disease” (THE BRIGHAM AND WOMEN'S HOSPITAL, INC., priority 2013, dated 2018):
# Assays:
# [1] = system: ccl2 promoter; experiment: ChIP of NF-κB and IRF-1 at the ccl2 promoter in primary astrocytes; type: cell-based, mouse
# From the text: FIGS. 4a-m. B4GALT6 regulates ccl2 transcriptional activity in astrocytes. (a) Murine ccl2 promoter. (b) Luciferase activity in 293T cells transfected with the ccl2 luciferase reporter plus one of the following constructs encoding IRF-1, p65 or an empty control vector (Empty). Results are relative to secreted alkaline phosphatase activity, presented as fold induction from empty vector. Data from three independent experiments, statistical analysis by Student's t-test. (c) ChIP analysis of the interaction of NF-κB, and IRF-1 with the ccl2 promoter in primary cultured astrocytes, pre-treated with PDMP and LacCer and activated with LPS/IFNγ (as in FIG. 3), 2 hours following LPS/IFNγ induction. (d-h) Recruitment of inflammatory monocytes (defined either as of CD11b^+ Ly6C^high or CD11b^+CD45^high cells) to the CNS of EAE NOD mice treated with PDMP or vehicle, as in (FIG. 1k), analyzed by flow cytometry and presented as cell frequency (e, g) and total cell numbers (f, h). Representative data of three independent experiments. […] (i) The frequency and number of CD11b^+ Ly6C^high monocytes as determined in the CNS 10 days after the i.c.v. injection of astrocytes-specific shRNA lentivirus as in (FIG. 3j). […] (j) monocytes were pre-treated for 1 h with PDMP, LacCer, both (LacCer+PDMP), or vehicle, and monocytes chemotaxis was measured using a transwell chamber system. […]
# [2] = system: B4GALT5/6; experiment: Quantification of LacCer levels in the CNS (LC-MS/MS); type: in vivo, mouse; conditions: NOD EAE
# Method: Chemical standards of LacCer (d18:1/16:0) and LacCer (d18:1/18:0) were obtained from Avanti Polar Lipids. Quantification of LacCer (d18:1/16:0) and LacCer (d18:1/18:0) was achieved by LC-MS/MS analysis performed on an Agilent (Agilent Technologies, Santa Clara, Calif.) 6460 triple-quadrupole LC/MS/MS system. The fragments from the [M+H]^+ ions for LacCer and internal standard were subjected to collision induced dissociation and the two major types of fragment ions were monitored via electrospray ionization in the positive ion mode in multiple reaction monitoring (MRM) mode for each ion. These two MRM transitions corresponded to the loss of the neutral lactosyl moiety, and to the formation of the lactose ion. Specifically, the MRM transitions used for quantification for LacCer (d18:1/16:0) and LacCer(d18:1/18:0) were 862.5>[…] and 890.6>548.5, respectively. Secondary confirmatory MRM transitions for LacCer(d18:1/16:0) and LacCer(d18:1/18:0) of 862.5>264.3 and 890.6>264.3 were also monitored. Mass spectrometer parameter settings were gas temp (325° C.), gas flow (12 L/min), nebulizer (25 psi), sheath gas temp (400° C.), sheath gas flow (12 L/min), capillary voltage (4000v), and nozzle voltage (500v). Liquid chromatography conditions with an a Phenomenex Gemini C18 column 4.6×50 mm 5 μm particle size was used for separation. Chromatography method the following flow rate=0.4 mLs/min; solvent A=5 mM ammonium formate in 5% MeOH and 0.1% formic acid v/v/v; solvent B=80% 2-propanol, 15% methanol, 5% water and 0.1% formic acid (v/v/v/v). […] Standard curve mixture was analyzed at various concentrations between 0.10 nM to 3.3 μM in LacCer (d18:1/16:0) and an internal standard concentration of 1 μM. The lower limit of quantification was estimated at 1 nM and a R^2 of 0.9969 was obtained using linear regression analysis. […]
# The brain tissue was weighed and homogenized using a Dounce homogenizer (VWR), in the extraction solvent using a Bligh and Dyer type liquid-liquid extraction. […] The dried sample was reconstituted in 100 μl of 2:1 chloroform-methanol, and analyzed using the HPLC-MS.
compound,measurement,setting,value
"CCCCCCCCCC(=O)N[C@H](CN1CCOCC1)[C@H](O)c1ccccc1 [PDMP, D-threo-1-phenyl-2-decanoylamino-3-morpholino-1-propanol]",recruitment of NF-κB and IRF-1 to the ccl2 promoter,"[1]; astrocytes activated with LPS/IFNγ, 2 hours",arrested
same,CNS LacCer levels,[2]; 20 mg/kg twice a day from day 40,significant decrease
lactosylceramide [LacCer],"recruitment of NF-κB and IRF-1 to the ccl2 promoter, LacCer added to PDMP","[1]; LacCer + PDMP, LPS/IFNγ",abrogated
shB4galt6: lentivirus-delivered shRNA against b4galt6 (TRCN0000334278; SEQ ID NO:3) (guide CGATGGACTGAACAATTTATTCTCGAGAATAAATTGTTCAGTCCACG),CNS LacCer levels,"[2]; i.c.v. 1×10^7 IU lentivirus at day 35, 10 days after injection",significant decrease
